Results from patent publication US8420693B2, “Dipyrrole compounds, compositions, and methods for treating cancer or viral diseases” (Gemin X Pharmaceuticals Canada Inc., priority 2004, dated 2013).

Assays:
[1] = test system: C33A cervical carcinoma cells; experiment: Cancer cell viability by cellular ATP levels (ViaLight), C33A; format: cell-based; conditions: Homo sapiens, C-33-A, 72 h, 3 days of incubation, ATP levels relative to untreated control
Experimental: (§1) Selected cell lines included C33A cervical carcinoma cells and H1299 human non-small cell lung cancer-cells (American Type Culture Collection, Manassas, Va. USA), which were cultured in the media recommended by the American Type Culture Collection. The cells lines were plated in 96-well microtiter plates (PerkinElmer Life Sciences Inc, Boston, Mass., USA) at a confluency that allowed them to reach confluence after 4 days of growth. One day after plating, the cells were treated with various concentrations of Compounds. Stock solutions of the Compounds were prepared in dimethyl sulfoxide (Sigma-Aldrich Inc., St. Louis, Mo., USA), diluted in the recommended media and then added to the cells. The total dimethyl sulfoxide on the cells was 0.1%. After 3 days of incubation the ATP levels in the cells were quantified using a luminescent ViaLight detection system (Bio-Whittaker, MD, USA). The results were plotted relative to untreated control cells, which were set at a value of 100. The IC50s were determined using a best-fit sigmoidal dose response curve with variable slope.

[2] = test system: H1299 human non-small cell lung cancer-cells; experiment: Cancer cell viability by cellular ATP levels (ViaLight), H1299; format: cell-based; conditions: NCI-H1299, 72 h, 3 days of incubation, ATP levels relative to untreated control
Experimental: as §1

| IC50 [1] | IC50 [2] | Compound |
| --- | --- | --- |
| 2.5 µM | 10 µM | COC1=CC(c2ccc(Cl)cc2)=NC1=Cc1[nH]c(C)cc1C [Compound 2, 5-(4-chlorophenyl)-3-methoxy-2-((3,5-dimethyl-1H-pyrrol-2-yl)methylene)-2H-pyrrole] |
| 10 µM | 10 µM | COC1=CC(c2ccccc2)=NC1=Cc1[nH]c(C)cc1C [Compound 1, 3-methoxy-2-((3,5-dimethyl-1H-pyrrol-2-yl)methylene)-5-phenyl-2H-pyrrole] |
| 16.6 µM | 16.6 µM | COC1=CC(c2cccc3ncccc23)=NC1=Cc1[nH]c(C)cc1C [Compound 4, 5-(4-methoxy-5-((3,5-dimethyl-1H-pyrrol-2-yl)methylene)-5H-pyrrol-2-yl)quinoline] |
| 2 µM | 6.69 µM | COC1=CC(c2ccc(OC)c(O)c2)=NC1=Cc1[nH]c(C)cc1C [Compound 38, 2-methoxy-5-(4-methoxy-5-((3,5-dimethyl-1H-pyrrol-2-yl)methylene)-5H-pyrrol-2-yl)phenol] |
| 2 µM | 40 µM | COC1=CC(c2ccco2)=NC1=Cc1[nH]c(C)cc1C [Compound 13, 2-((5-(furan-2-yl)-3-methoxy-2H-pyrrol-2-ylidene)methyl)-3,5-dimethyl-1H-pyrrole] |
| 7 µM | 12.5 µM | COC1=CC(c2ccc(OC)cc2C=O)=NC1=Cc1[nH]c(C)cc1C [Compound 11, 5-methoxy-2-(4-methoxy-5-((3,5-dimethyl-1H-pyrrol-2-yl)methylene)-5H-pyrrol-2-yl)benzaldehyde] |
| 0.503 µM | 1.06 µM | COC1=CC(c2ccc(OC)c(C)c2)=NC1=Cc1[nH]c(C)cc1C [Compound 24, 2-((3-methoxy-5-(4-methoxy-3-methylphenyl)-2H-pyrrol-2-ylidene)methyl)-3,5-dimethyl-1H-pyrrole] |
| 8.96 µM | 15.9 µM | COC1=CC(c2cncnc2)=NC1=Cc1[nH]c(C)cc1C [Compound 35, 5-(4-methoxy-5-((3,5-dimethyl-1H-pyrrol-2-yl)methylene)-5H-pyrrol-2-yl)pyrimidine] |
| 8 µM | 10 µM | COC1=CC(c2ccc(NS(C)(=O)=O)cc2)=N/C1=C\c1[nH]c(C)cc1C [Compound 8, N-4-(4-methoxy-5-((3,5-dimethyl-1H-pyrrol-2-yl)methylene)-5H-pyrrol-2-yl)-phenyl-methylsulfonamide] |
| 2 µM | 4 µM | COC1=CC(c2ccc(OC)c(OC)c2OC)=NC1=Cc1[nH]c(C)cc1C [Compound 18, 2-((3-methoxy-5-(2,3,4-trimethoxyphenyl)-2H-pyrrol-2-ylidene)methyl)-3,5-dimethyl-1H-pyrrole] |
| 3 µM | 4.5 µM | COC1=CC(c2ccc(OC)cc2OC)=NC1=Cc1[nH]c(C)cc1C [Compound 16, 2-((3-methoxy-5-(2,4-dimethoxyphenyl)-2H-pyrrol-2-ylidene)methyl)-3,5-dimethyl-1H-pyrrole] |
| 3 µM | 4.6 µM | COC1=CC(c2cc3ccccc3s2)=NC1=Cc1[nH]c(C)cc1C [Compound 10, 2-((5-(benzo[b]thiophen-2-yl)-3-methoxy-2H-pyrrol-2-ylidene)methyl)-3,5-dimethyl-1H-pyrrole] |
| 0.75 µM | 6.6 µM | COC1=CC(c2ccsc2)=NC1=Cc1[nH]c(C)cc1C [Compound 15, 2-((3-methoxy-5-(thiophen-3-yl)-2H-pyrrol-2-ylidene)methyl)-3,5-dimethyl-1H-pyrrole] |
| 6.33 µM | 6.87 µM | COC1=CC(c2cnc(OC)nc2OC)=NC1=Cc1[nH]c(C)cc1C [Compound 32, 2,4-dimethoxy-5-(4-methoxy-5-((3,5-dimethyl-1H-pyrrol-2-yl)methylene)-5H-pyrrol-2-yl)pyrimidine] |
| 1.23 µM | 1.24 µM | COC1=CC(c2ccc3c(c2)OCCN3C)=NC1=Cc1[nH]c(C)cc1C [Compound 34, 3,4-dihydro-7-(4-methoxy-5-((3,5-dimethyl-1H-pyrrol-2-yl)methylene)-5H-pyrrol-2-yl)-4-methyl-2H-benzo[b][1,4]oxazine] |
| 9.5 µM | 15 µM | COC1=CC(c2ccc(Br)s2)=NC1=Cc1[nH]c(C)cc1C [Compound 7, 2-((5-(5-bromothiophen-2-yl)-3-methoxy-2H-pyrrol-2-ylidene)methyl)-3,5-dimethyl-1H-pyrrole] |
| 0.21 µM | 0.55 µM | COC1=CC(c2ccc3c(c2)OCO3)=NC1=Cc1[nH]c(C)cc1C [Compound 20, 2-((5-(benzo[d][1,3]dioxol-5-yl)-3-methoxy-2H-pyrrol-2-ylidene)methyl)-3,5-dimethyl-1H-pyrrole] |
| 0.29 µM | 0.42 µM | COC1=CC(c2ccc(N(C)C)cc2)=NC1=Cc1[nH]c(C)cc1C [Compound 22, 4-(4-methoxy-5-((3,5-dimethyl-1H-pyrrol-2-yl)methylene)-5H-pyrrol-2-yl)-N,N-dimethylbenzenamine] |
| 7.75 µM | 16.5 µM | COC1=CC(c2ccc(C(=O)N3CCCC3)cc2)=NC1=Cc1[nH]c(C)cc1C [Compound 25, (4-(4-methoxy-5-((3,5-dimethyl-1H-pyrrol-2-yl)methylene)-5H-pyrrol-2-yl)phenyl)(pyrrolidin-1-yl)methanone] |
| 0.849 µM | 3.65 µM | COC1=CC(c2ccc(OC)c(F)c2)=NC1=Cc1[nH]c(C)cc1C [Compound 26, 2-((5-(3-fluoro-4-methoxyphenyl)-3-methoxy-2H-pyrrol-2-ylidene)methyl)-3,5-dimethyl-1H-pyrrole] |
| 0.69 µM | 1.34 µM | COC1=CC(c2ccc(OCCN3CCCC3)cc2)=NC1=Cc1[nH]c(C)cc1C [Compound 21, 2-((5-(4-(2-(pyrrolidin-1-yl)ethoxy)phenyl)-3-methoxy-2H-pyrrol-2-ylidene)methyl)-3,5-dimethyl-1H-pyrrole] |
| 0.21 µM | 0.58 µM | COC1=CC(c2ccc(OC)c(OC)c2)=NC1=Cc1[nH]c(C)cc1C [Compound 17, 2-((3-methoxy-5-(3,4-dimethoxyphenyl)-2H-pyrrol-2-ylidene)methyl)-3,5-dimethyl-1H-pyrrole] |
| 2.16 µM | 8.3 µM | Cc1cc(C)c(C=C2N=C(c3ccc4c(c3)OCO4)C=C2OCc2ccccc2)[nH]1 [Compound 44, 5-(benzo[d][1,3]dioxol-5-yl)-3-(benzyloxy)-2-((3,5-dimethyl-1H-pyrrol-2-yl)methylene)-2H-pyrrole] |
| 1.6 µM | 7.55 µM | COC1=CC(c2ccc3c(c2)OCCO3)=NC1=Cc1[nH]c(C)cc1C [Compound 23, 2-((5-(2,3-dihydrobenzo[b][1,4]dioxin-7-yl)-3-methoxy-2H-pyrrol-2-ylidene)methyl)-3,5-dimethyl-1H-pyrrole] |
| 1.19 µM | 1.43 µM | COC1=CC(c2ccc(SC(C)C)cc2)=NC1=Cc1[nH]c(C)cc1C [Compound 36, 2-((5-(4-(isopropylthio)phenyl)-3-methoxy-2H-pyrrol-2-ylidene)methyl)-3,5-dimethyl-1H-pyrrole] |
| 15 µM | 14 µM | COC1=CC(c2cccc([N+](=O)[O-])c2)=NC1=Cc1[nH]c(C)cc1C [Compound 12, 2-((3-methoxy-5-(3-nitrophenyl)-2H-pyrrol-2-ylidene)methyl)-3,5-dimethyl-1H-pyrrole] |
| 0.627 µM | 2.38 µM | COC1=CC(c2cc(OC)c(OC)c(OC)c2)=NC1=Cc1[nH]c(C)cc1C [Compound 28, 2-((3-methoxy-5-(3,4,5-trimethoxyphenyl)-2H-pyrrol-2-ylidene)methyl)-3,5-dimethyl-1H-pyrrole] |
| 7.9 µM | 13.9 µM | COC1=CC(c2ccc(OC)nc2)=NC1=Cc1[nH]c(C)cc1C [Compound 42, 2-methoxy-5-(4-methoxy-5-((3,5-dimethyl-1H-pyrrol-2-yl)methylene)-5H-pyrrol-2-yl)pyridine] |
| 3 µM | 10 µM | COC1=CC(c2ccc(F)cc2F)=NC1=Cc1[nH]c(C)cc1C [Compound 3, 2-((5-(2,4-difluorophenyl)-3-methoxy-2H-pyrrol-2-ylidene)methyl)-3,5-dimethyl-1H-pyrrole] |

| Compound | IC50 [1] | IC50 [2] |
| --- | --- | --- |
| COC1=CC(c2ccc(COC(C)(C)C)cc2)=NC1=Cc1[nH]c(C)cc1C [Compound 41, 2-((5-(4-(tert-butoxymethyl)phenyl)-3-methoxy-2H-pyrrol-2-ylidene)methyl)-3,5-dimethyl-1H-pyrrole] | 4.17 µM | 10.1 µM |
| COC1=CC(c2cccnc2F)=NC1=Cc1[nH]c(C)cc1C [Compound 40, 2-fluoro-3-(4-methoxy-5-((3,5-dimethyl-1H-pyrrol-2-yl)methylene)-5H-pyrrol-2-yl)pyridine] | 8.55 µM | 20 µM |
| COC1=CC(c2cccs2)=NC1=Cc1[nH]c(C)cc1C [Compound 6, 2-((3-methoxy-5-(thiophen-2-yl)-2H-pyrrol-2-ylidene)methyl)-3,5-dimethyl-1H-pyrrole] | 6.5 µM | 8.5 µM |
| COC1=CC(c2ccc(F)nc2)=NC1=Cc1[nH]c(C)cc1C [Compound 39, 2-fluoro-5-(4-methoxy-5-((3,5-dimethyl-1H-pyrrol-2-yl)methylene)-5H-pyrrol-2-yl)pyridine] | 7.65 µM | 20 µM |
| COC1=CC(c2cccnc2Cl)=NC1=Cc1[nH]c(C)cc1C [Compound 33, 2-chloro-3-(4-methoxy-5-((3,5-dimethyl-1H-pyrrol-2-yl)methylene)-5H-pyrrol-2-yl)pyridine] | 8.73 µM | 15.9 µM |
